Data: US20100261876A1, “NOVEL METHODS OF […] FOR T[…] PEPTIDES” (priority 2007, published 2010)
Where a SMILES comes first, the peptide text is derived from it.

Experiments:
HIV-Res = assay: Magi-CCR5 infectivity assay, resistant viral isolate; format: cell-based, HIV-1; conditions: compared to SEQ ID NO:6 / 7
Source text: Assessment of biological properties included measurement of antiviral activity against HIV-1 strains. In determining antiviral activity (e.g., one measure being the ability to inhibit transmission of HIV to a target cell) of the HIV fusion inhibitor peptides, an in vitro assay which has been shown, by data generated using peptides derived from the HR regions of HIV gp41, to be predictive of antiviral activity observed in vivo was used. […] These assays score for reduction of infectious virus titer employing the indicator cell lines MAGI or the CCR5 expressing derivative cMAGI. Both cell lines exploit the ability of HIV-1 tat to transactivate the expression of a β-galactosidase reporter gene driven by the HIV-LTR. The β-gal reporter has been modified to localize in the nucleus and can be detected with the X-gal substrate as intense nuclear staining within a few days of infection. […] The number of infected cells for each control and peptide dilution was determined with the CCD-imager, and then the IC50 was calculated (expressed in μg/ml).
Viruses resistant to the antiviral activity of a peptide consisting of a base sequence can be produced using standard laboratory methods. […] The cultures are maintained and monitored until syncytia are present. […] The second round of culture is maintained and monitored for presence of virus resistant to the antiviral activity of the peptide. […]

[1] = Stability in aqueous solution (PBS), peptide remaining in solution by HPLC; format: physicochemical; conditions: phosphate-buffered saline (PBS), 10 mg/ml in PBS, about pH 7.3 to 7.5, 37° C., read-out: peptide remaining detectable in solution at 1 week
[2] = system: virus isolates (IIIB, 030, 060 and 098); assay: In vitro resistance selection, geometric mean over isolates; format: cell-based, HIV; conditions: compared to SEQ ID NO:2
Method: Biological properties of the HIV fusion inhibitor peptides provided herein have been compared with other recognized, effective antiviral agents, including SEQ ID NO: 2 (enfuvirtide). In particular, in vitro resistance comparison studies were performed between the novel SEQ ID NO:9 compound of interest and established antiviral agent SEQ ID NO:2, described in detail as follows: MT2 cells were infected with virus isolates (IIIB, 030, 060 and 098) and cultured in increasing concentrations of SEQ ID NO:2 (enfuvirtide) or SEQ ID NO:9 to select for resistance. The initial peptide concentration was approximately 2 times the IC50 of each peptide against the corresponding wild type isolate. Peptide concentrations were maintained by adding fresh peptide every 1-3 days. Cultures were monitored for cytopathic effect (CPE) using standard techniques and when maximal CPE was achieved, a small aliquot of virus was used for subsequent rounds of infection. Peptide concentrations were increased 2 to 4-fold depending on the length of time in culture when compared to the growth rate of wild type virus. During the course of selection, peptide-free virus stocks were also collected. Peptide-free virus stocks were characterized for gp41 genotypic changes by dideoxy sequencing chemistries and phenotypic susceptibility was determined using a cMAGI infectivity assay.

[3] = Intravenous pharmacokinetics in cynomolgus monkeys; format: in vivo, cynomolgus monkeys (Macaca fasicularis); conditions: relative to base sequence SEQ ID NO:5
Method: For determining pharmacokinetic properties, an HIV fusion inhibitor peptide or a base sequence from which an HIV fusion inhibitor peptide is derived was dosed intravenously in cynomolgus monkeys (Macaca fasicularis) (other animal models may be used for determining pharmacokinetic properties, as known in the art). At various times post-dose, blood samples were drawn and plasma isolated by centrifugation. Plasma samples were stored frozen until analysis by LC-MS (liquid chromatography/mass spectrometry) in the electrospray, positive-ion mode. An HIV fusion inhibitor or base sequence was eluted from a C18 or C8 HPLC column with a gradient of acetonitrile in a buffer of 10 mM ammonium acetate, pH 6.8. At the time of analysis, plasma samples were deproteinated with either two or three volumes of acetonitrile containing 0.5% formic acid. Duplicate calibration standards in cynomolgus plasma samples were prepared at the same time as the samples and analyzed before and after the samples containing either HIV fusion inhibitor peptide or base sequence. Pharmacokinetic properties were calculated from the plasma concentration-time data using either mono-exponential or bi-exponential mathematical models. Models were derived by non-linear least squares optimization. A 1/C^2 weighting of concentrations was used. […]

SMILES | resistance profile (activity against the resistant viral isolate Res) (HIV-Res) | remaining at 168 h, 10 mg/ml [1] [%] | barrier to development of resistance in vitro [2] | biological half-life, in words [3]
CC[C@H](C)[C@H](NC(=O)[C@H](C)NC(=O)[C@H](CCCNC(=N)N)NC(=O)[C@H](CC(=O)O)NC(=O)[C@H](Cc1c[nH]c2ccccc12)NC(=O)[C@H](C)NC(=O)[C@H](CCC(=O)O)NC(=O)[C@H](Cc1c[nH]c2ccccc12)NC(=O)[C@@H](NC(=O)[C@@H](NC(C)=O)[C@@H](C)O)[C@@H](C)O)C(=O)N[C@@H](C)C(=O)N[C@@H](CCC(=O)O)C(=O)N[C@@H](Cc1ccc(O)cc1)C(=O)N[C@@H](C)C(=O)N[C@@H](C)C(=O)N[C@@H](CCCNC(=N)N)C(=O)N[C@H](C(=O)N[C@@H](CCC(=O)O)C(=O)N[C@@H](C)C(=O)N[C@@H](CC(C)C)C(=O)N[C@@H](CC(C)C)C(=O)N[C@@H](CCCNC(=N)N)C(=O)N[C@@H](C)C(=O)N[C@@H](CC(C)C)C(=O)N[C@@H](CCC(N)=O)C(=O)N[C@@H](CCC(=O)O)C(=O)N[C@@H](CCC(N)=O)C(=O)N[C@@H](CCC(N)=O)C(=O)N[C@@H](CCC(=O)O)C(=O)N[C@@H](CCCCN)C(=O)N[C@@H](CC(N)=O)C(=O)N[C@@H](CCC(=O)O)C(=O)N[C@@H](C)C(=O)N[C@@H](C)C(=O)N[C@@H](CC(C)C)C(=O)N[C@@H](CCCNC(=N)N)C(=O)N[C@@H](CCC(=O)O)C(=O)N[C@@H](CC(C)C)C(N)=O)[C@@H](C)CC [compound 9] (Ac-TTWEAWDRAIAEYAARIEALLRALQEQQEKNEAALREL-NH2) | good resistance profile | ≥ 90 | higher barrier to development of resistance | increased biological half-life
CC[C@H](C)[C@H](NC(=O)[C@H](C)NC(=O)[C@H](CCCNC(=N)N)NC(=O)[C@H](CC(=O)O)NC(=O)[C@H](Cc1c[nH]c2ccccc12)NC(=O)[C@H](C)NC(=O)[C@H](CCC(=O)O)NC(=O)[C@H](Cc1c[nH]c2ccccc12)NC(=O)[C@@H](NC(=O)[C@@H](NC(C)=O)[C@@H](C)O)[C@@H](C)O)C(=O)N[C@@H](C)C(=O)N[C@@H](CCC(=O)O)C(=O)N[C@@H](Cc1ccc(O)cc1)C(=O)N[C@@H](C)C(=O)N[C@@H](C)C(=O)N[C@@H](CCCNC(=N)N)C(=O)N[C@H](C(=O)N[C@@H](CCC(=O)O)C(=O)N[C@@H](C)C(=O)N[C@@H](CC(C)C)C(=O)N[C@@H](CC(C)C)C(=O)N[C@@H](CCCNC(=N)N)C(=O)N[C@@H](C)C(=O)N[C@@H](C)C(=O)N[C@@H](CCC(N)=O)C(=O)N[C@@H](CCC(=O)O)C(=O)N[C@@H](CCC(N)=O)C(=O)N[C@@H](CCC(N)=O)C(=O)N[C@@H](CCC(=O)O)C(=O)N[C@@H](CCCCN)C(=O)N[C@@H](CC(C)C)C(=O)N[C@@H](CCC(=O)O)C(=O)N[C@@H](C)C(=O)N[C@@H](C)C(=O)N[C@@H](CC(C)C)C(=O)N[C@@H](CCCNC(=N)N)C(=O)N[C@@H](CCC(=O)O)C(=O)N[C@@H](CC(C)C)C(N)=O)[C@@H](C)CC [compound 10] (Ac-TTWEAWDRAIAEYAARIEALLRAAQEQQEKLEAALREL-NH2) | good resistance profile |  |  | increased biological half-life
